Measured values as given in patent US8853359B2, “Endokinin C/D-derived peptides” (University of Miyazaki, priority 2009, dated 2014).

Assays:
Type in all cases: in vivo, rat
[1] = paw size after subcutaneous administration of peptide alone to plantar; settings: 10^-3M D-EKC/D (3) subcutaneous to plantar; for paw plantar size after administration of peptide alone: FIG. 10A
Method: 100 μlof saline or 10^−3M (100 nmol/100 D-EKC/D (3) was subcutaneously administered to rat plantar. Paw size was measured with time for 60 minutes after administration. Paw size (control) before administration was designated as the basal level, and increases in paw size were then calculated.

[2] = tested on: carrageenan-induced inflammation; assay: carrageenan-induced increase in paw size after subcutaneous pre-administration of peptide to plantar; settings: 10^-3M (100 nmol/100 μl) subcutaneous to plantar
Method: 100 μl of saline, 10^−3M (100 nmol/100 μl) D-EKC/D (3), or 10^−3M (100 nmol/100 μl) Spantide II (N^6-[(3-pyridinyl)carbonyl]-D-Lys-L-Pro-3-(3-pyridinyl)-L-Ala-L-Pro-3,4-dichloro-D-Phe-L-Asn-D-Trp-L-Phe-D-Trp-L-Leu-L-Nle-NH2) (SEQ ID NO: 21) was subcutaneously administered to rat plantar. Four (4) hours later, 100 μl (2 mg/100 μl) of 2% carrageenan was subcutaneously administered to rat plantar. Paw size was measured every 10 minutes for 60 minutes after carrageenan administration. The paw size (control) before carrageenan administration was designated as the basal level and increases in paw size were then calculated.
Procedures similar to those in Experiment B were performed, except for administration of carrageenan at 8 hours after administration of saline, D-EKC/D (3), or Spantide II.
Procedures similar to those in Experiment B were performed except that the test with Spantide II was not conducted and carrageenan was administered at 14 hours after administration of saline or D-EKC/D (3).

[3] = tested on: formalin-induced pain behavior; assay: formalin-induced pain behavior (flinching) after intrathecal pre-administration of peptide
Method: In Example 5, 10^−3M (10 nmol/10 μl) D-EKC/D (3), (5), or (7), Spantide I, or saline (10 μl) was administered to intrathecally catheterized rats via catheters and then 4 hours later, 50 μl of 2% formalin was administered subcutaneously to hind paws of rats. The number of flinching (pain behavior) was determined for 60 minutes after formalin administration, so that the degree of pain could be evaluated. During the 10-minute period after formalin administration (referred to as phase I), pain behavior was measured once every 2 minutes (1 minute per measurement). During the period from 10 minutes to 60 minutes after formalin administration (referred to as phase II), pain behavior was measured once every 5 minutes (1 minute per measurement), so that the degree of pain could be evaluated. During phase I, behavior (phasic pain) resulting from chemical stimulation accompanying formalin administration was observed. During phase II, tonic pain following the phasic pain was observed.
The horizontal axis indicates time (minutes) after formalin administration and the vertical axis indicates the measured number of pain behavior per minute.

[4] = tested on: substance P-induced scratching behavior; assay: substance P-induced scratching behavior after intrathecal pre-administration of test peptide
Method: In Example 1, 10^−3M (10 nmol/10 μl) EKC/D or D-EKC/D (1), (2) or (3) was administered to intrathecally catheterized rats via catheters. After the predetermined time periods denoted on the horizontal axis in FIG. 1, the numbers of scratching events (scratching behavior) induced by intrathecal administration of 10^−3M (10 nmol/10 μl) substance P (hereafter, referred to as “SP”) were determined. Here, the expression “10^−3M (10 nmol/10 μl) EKC/D or D-EKC/D (1), (2), or (3) was administered” refers to a situation in which 10 μl in total of a solution (that is, 10^−3M solution) containing 10 nmol of EKC/D or D-EKC/D (1), (2), or (3) was all administered. The expression, “ . . . administration of 10^−3M substance P (10 nmol/10 μl)” refers to a situation in which 10 μl in total of a solution (that is, 10^−3M solution) containing 10 nmol of the substance was all administered. The same similarly applies below.
Meanwhile, saline (10 μl) was intrathecally administered to intrathecally catheterized rats via catheters and then, after 30 minutes, 10^−3M SP (10 nmol/10 μl) was intrathecally administered to the rats. The number of the thus induced scratching events was determined to be the number of scratching events in the control group. The control group is denoted with saline-4-SP in FIG. 1.
The vertical axis of the graph in FIG. 1 indicates changes in the numbers of scratching events (represented by relative values) due to administration of 10^−3M EKC/D or D-EKC/D (1), (2), or (3) when the number of scratching events (of untreated rats in a control group) induced by intrathecal administration of 10^−3M substance P was determined to be 100%. Meanwhile, the horizontal axis indicates the intervals between the administration of EKC/D, D-EKC/D (1), (2), or (3) and 10^−3M substance P. […]
The test was conducted with procedures similar to those in Example 1, except for 4 hours of interval between the administration of each test peptide and the administration of substance P. The concentration of each test peptide and that of substance P for administration were determined to be 10^−3M (10 nmol/10 μl), similarly to Example 1. The number of scratching events in the control group was determined with procedures similar to those in Example 1, such that substance P was administered at 30 minutes after administration of saline (10 μl) and then the number was determined.

[5] = tested on: carrageenan-induced inflammation; assay: carrageenan-induced increase in paw size after intrathecal pre-administration of peptide
Method: In Example 6, 10^−3M (10 nmol/10 μl) D-EKC/D (3), (5), or (7), Spantide I, or saline (10 μl) was administered to intrathecally catheterized rats via catheters. Four hours later, 100 μl of 2% carrageenan (2 mg/100 μl) was subcutaneously administered to rat plantar.
Paw size was measured with time for 60 minutes after carrageenan administration. The paw size (control) before carrageenan administration was designated as the basal level, and the increases in paw size were then calculated.

Question: Which “inflammation reaction caused by the peptide” value [1] does the source give for “Ala-Tyr-Gln-Leu-Glu-His-Thr-Phe-Gln-DTrp-Leu-Leu-NH2 (AYQLEHTFQXLL; HELM PEPTIDE1{A.Y.Q.L.E.H.T.F.Q.[dW].L.L.[am]}$$$$V2.0; N-terminus assumed; SMILES CC(C)C[C@H](NC(=O)[C@H](CC(C)C)NC(=O)[C@@H](Cc1c[nH]c2ccccc12)NC(=O)[C@H](CCC(N)=O)NC(=O)[C@H](Cc1ccccc1)NC(=O)[C@@H](NC(=O)[C@H](Cc1c[nH]cn1)NC(=O)[C@H](CCC(=O)O)NC(=O)[C@H](CC(C)C)NC(=O)[C@H](CCC(N)=O)NC(=O)[C@H](Cc1ccc(O)cc1)NC(=O)[C@H](C)N)[C@@H](C)O)C(N)=O) [D-EKC/D (3)]” here?
Answer: no inflammation reaction took place

Question: And the “paw plantar size after administration of peptide alone” value ([1]; 60 minutes after administration)?
Answer: restored to near the basal (control) level

Question: What about the “paw plantar size after administration of peptide alone” value ([1]; early after administration) of the same substance?
Answer: tentatively increased

Question: What about the “increases in paw size accompanying carrageenan-induced inflammation” value (“increases” for short) ([2]; carrageenan 4 hours later, FIG. 10B) of the same substance?
Answer: suppressed increases in paw size accompanying carrageenan-induced inflammation more significantly than administration of Spantide II

Question: And the “increases” value ([2]; carrageenan 8 hours later, FIG. 10C)?
Answer: suppressed increases in paw size

Question: What about the “increases” value ([2]; carrageenan 14 hours later, FIG. 10D) of the same substance?
Answer: suppressed increases in paw size

Question: And the “numbers of pain behavior during phase I” value ([3]; 10^-3M (10 nmol/10 μl) peptide intrathecal, 2% formalin 4 hours later, 0-10 minutes after formalin)?
Answer: significantly decreased

Question: What about the “numbers of pain behavior during phase II” value ([3]; 10^-3M (10 nmol/10 μl) peptide intrathecal, 2% formalin 4 hours later, 10-60 minutes after formalin) of the same substance?
Answer: significantly decreased

Question: And the “suppressing effects on formalin-induced pain behavior compared with Spantide I” value ([3]; 10^-3M intrathecal, formalin 4 hours later)?
Answer: sustained longer compared with the effects of Spantide I

Question: What about the “number of scratching events induced by substance P, relative to control group (saline+SP = 100%)” value ([4]; 10^-3M (10 nmol/10 μl) peptide intrathecal, 10^-3M SP 30 minutes after peptide, FIG. 1) of the same substance?
Answer: about 20%

Question: And the “number of scratching events induced by substance P, relative to control group” value ([4]; 10^-3M peptide intrathecal, administration interval of 45 minutes, FIG. 1)?
Answer: almost the same effects were exhibited

Question: What about the “suppressive effects on substance P-induced scratching behavior” value ([4]; Example 1, intervals of 4 hours, 8 hours, and 14 hours between peptide and SP, both 10^-3M) of the same substance?
Answer: significant suppressive effects

Question: And the “scratching behavior induced by substance P” value ([4]; Example 2, FIG. 2, 10^-3M peptide, SP 4 hours after peptide, control about 380 scratching)?
Answer: almost never induced

Question: And the “suppressive effects on scratching as administration interval is prolonged” value ([4]; Example 2, FIG. 2, 10^-3M peptide, interval 8 hours and then 14 hours)?
Answer: gradually attenuated

Question: What about the “scratching behavior induced by substance P / suppressive effects” value ([4]; Example 3, FIG. 3, 10^-3M peptide, SP 4 hours after peptide, control 380 scratching) of the same substance?
Answer: almost never induced

Question: What about the “rate of increase of paw sizes” value ([5]; 10^-3M (10 nmol/10 μl) peptide intrathecal, 2% carrageenan 4 hours later, FIG. 9A) of the same substance?
Answer: significant decreases

Question: What about the “effects on paw size and withdrawal time compared with Spantide I” value ([5]; 10^-3M intrathecal, carrageenan 4 hours later) of the same substance?
Answer: sustained to a greater extent than the effects of Spantide I
